Data as given in US20060282906A1, “Non-transgenic rodent model of Alzheimer's disease” (priority 2005, published 2006).
Marks after values point to notes of the source that are not given here. Where no end group is shown, it is not given here.

How the values were obtained:
[1] = tested on: rats; assay: Barnes circular platform test; type: in vivo, rat; settings: 50 nmol intracerebroventricular; memory test trial (day 8) vs last trial of training (day −1); P<0.01
Method: All rats were anesthetized using 40 mg/kg of pentobarbital (Somnotol; MTC Pharmaceuticals, Cambridge, Ontario) intraperitoneally. Body temperature was maintained at 37° C. Aβ(25-35) (50 nmol in 10 μL of saline) was injected bilaterally into the lateral ventricles. Aβ(25-35) was prepared according to established methods (Sigurdsson, et al. (1997) supra). […] (1997) supra). […] After wound suture, all rats received […] of buprenorphine intramuscularly and were allowed to recover from surgery for 7 days. Learning and memory deficits were assessed using the Barnes circular platform. There are twenty holes evenly located along the border of circular platform with a hidden escape box beneath one of the holes. The circular platform is equipped with colored cues on the surrounding wall. A bright light combined with wind from a fan hung on the ceiling above the platform provides the incentive for the rats to find the hidden box and enter the escape hole. During each trial, the rats were initially placed in the center of the platform under an inverted box, then the box was lifted up and the rat is allowed to find the hole for up to 4 minutes. The latency (time to enter the escape hole) was recorded during the trial. There was a training period (trials 1-14) performed at day −7 to day −1 before surgery (day 0). PDTC or vehicle treatment was given 30 minutes before Aβ(25-35) injections and from days 1 to 7 post-surgery. Spatial memory was then tested on day 8 (trial 15) with the escape hole placed in the same location. Spatial learning was examined by re-testing (re-acquisition) from days 9 to 15 (trials 16-29) with the escape box relocated at […] from the original location. Digital photographs were taken using a light microscope (Leitz Diaplan). […] Also, relative optical density measurements and numbers of stained cells or accumulations were measured in entire brain areas for quantitative analysis and statistically analyzed with ANOVA and Tukey post hoc test with a significance level of P<0.05. […] The staircase data are expressed as the mean±SEM. […] Data are expressed as mean±SEM. […]

[2] = tested on: Male Wistar rats; assay: Congo Red histochemistry of rat brain sections; type: in vivo; settings: Aβ: lesions in fornix, anterior hippocampus, CA1 hippocampus; endothelin: infarct
Method: Male Wistar rats (250 to 300 grams; Charles River, Montreal, Quebec) were divided into 4 groups: intracerebroventricular injections of Aβ(25-35) (BACHEM, Torrance, Calif.); endothelin injections into the right striatum; both Aβ(25-35) and striatal endothelin injections; and sham procedures. The Aβ(25-35) fragment was used to reduce the possibility of rapid coagulation and to allow diffusion of the peptide into the brain.
All rats were anesthetized using 40 mg/kg of pentobarbital (Somnotol; MTC Pharmaceuticals, Cambridge, Ontario) intraperitoneally. Body temperature was maintained at 37° C. Aβ(25-35) (50 nmol in 10 μL of saline) was injected bilaterally into the lateral ventricles. Aβ(25-35) was prepared according to established methods (Sigurdsson, et al. (1997) supra). Aβ(25-35) (50 nmol in 10 μL of saline at a rate of 1 μL/minute) was injected bilaterally into the lateral ventricles via a stainless-steel cannula (23-gauge; anterior/posterior −0.8, medial/lateral ±1.4, and dorsal/ventral −4.0 below dura). Two endothelin injections (6 pmol in 3 μL of saline), 1 mm apart, were made into the right striatum (Sigurdsson, et al. (1997) supra). Sham procedures involved all the surgical steps without injections of Aβ(25-35) or endothelin. After wound suture, all rats received […] of buprenorphine intramuscularly and were allowed to recover from surgery for 7 days. […]

[3] = tested on: Male Wistar rats; assay: Quantitative immunohistochemistry: relative optical density and numbers of stained cells or accumulations; type: in vivo, rat; settings: for APP Accumulation / GFAP Intensity / OX6 Intensity: vehicle (not in brackets), mean ± SEM, n = 4
Method: (§1) All rats were anesthetized using 40 mg/kg of pentobarbital (Somnotol; MTC Pharmaceuticals, Cambridge, Ontario) intraperitoneally. Body temperature was maintained at 37° C. Aβ(25-35) (50 nmol in 10 μL of saline) was injected bilaterally into the lateral ventricles. Aβ(25-35) was prepared according to established methods (Sigurdsson, et al. (1997) supra). Aβ(25-35) (50 nmol in 10 μL of saline at a rate of 1 μL/minute) was injected bilaterally into the lateral ventricles via a stainless-steel cannula (23-gauge; anterior/posterior −0.8, medial/lateral ±1.4, and dorsal/ventral −4.0 below dura). Two endothelin injections (6 pmol in 3 μL of saline), 1 mm apart, were made into the right striatum (Sigurdsson, et al. (1997) supra). Sham procedures involved all the surgical steps without injections of Aβ(25-35) or endothelin. After wound suture, all rats received 40 mg/kg of buprenorphine intramuscularly and were allowed to recover from surgery for 7 days.
(§2) Twenty-one days after surgery, all animals were euthanized via pentobarbital overdose and perfused transaortically first with saline followed by 4% formaldehyde (pH 7.4). The brains were removed and cryoprotected in 30% sucrose for 36 hours at 4° C. Coronal sections (30 pm) were cut using a cryostat.
(§3) Free-floating sections from rat brains (n=5 for each group) were treated with 0.03% hydrogen peroxide and blocked with 3 mL of horse or rabbit serum (VECTASTAIN® Elite, Vector Laboratories, Burlingame, Calif.). The following primary antibodies were diluted in filtered phosphate-buffered saline: APPa4 mouse monoclonal (Chemicon International Inc, Temecula, Calif.; 1:1000), GFAP mouse monoclonal (Sigma-Aldrich, St Louis, Mo.; 1:1000), OX-6 mouse monoclonal (Serotec, Inc., Raleigh, N.C.; 1:1000), Tau-2 mouse monoclonal (Sigma-Aldrich, St Louis, Mo.; 1:10000), NFκB(p65) goat polyclonal (Santa Cruz Biotechnologies, Santa Cruz, Calif.; 1:1000), IL-1β goat polyclonal (Santa Cruz Biotechnologies, Santa Cruz, Calif.; 1:1000), and TNF-α-M18 goat polyclonal (Santa Cruz Biotechnologies, Santa Cruz, Calif.; 1:1000). APP-, Tau-2-, GFAP-, and OX-6-stained sections were incubated with 3 mL of horse biotinylated anti-mouse secondary antibody and horse serum. NFκB(p65), IL-1β, and TNF-α-stained sections were incubated with 3 mL of biotinylated rabbit anti-goat secondary antibody and rabbit serum. Sections were then incubated in 3 mL of avidin-biotin complex followed by 0.05% diaminobenzidine. Sections were washed, air-dried, cleared in xylene, and cover-slipped. Brains to be compared were processed at the same time using the same solutions to reduce variability in immunostaining caused by separate processing.
(§4) Digital photographs were taken using a light microscope (Leitz Diaplan). An investigator was blinded to the identification of the rat sections while analysis was being performed. All immunohistochemical data that were compared was processed at the same time to reduce any variation caused by differences of intensity. A grading scale was based on both observable size and intensity of staining (n=5 for each group). Also, relative optical density measurements and numbers of stained cells or accumulations were measured in entire brain areas for quantitative analysis and statistically analyzed with ANOVA and Tukey post hoc test with a significance level of P<0.05.

[4] = tested on: Male Wistar rats; assay: Immunohistochemistry of rat brain sections, grading scale of staining size and intensity; type: in vivo; design: key to NKκB(p65) immunostaining signal / COX-2 immunostaining signal / GFAP immunostaining signal / OX-6 immunostaining signal / APP immunostaining signal / Tau-2 immunostaining signal / TNFα immunostaining signal / Cas-3 immunostaining signal: n.s.: no positive staining; +: moderate immunostaining signal; ++: strong immunostaining signal; +++: strongest immunostaining signal
Method: as §1, §2, §3, §4

GSNKGAIIGLM [Aβ, β-amyloid fragment (25-35), 50 nmol injected bilaterally into the lateral ventricles of rats]
stained amyloid positive with Congo Red: Congo Red staining [2]
13.4±5.1: average numbers of OX-6-stained microglia ([3]; CA1 of the hippocampus)
+: APP immunostaining signal ([4]; Corpus Callosum) | COX-2 immunostaining signal ([4]; Corpus Callosum) | GFAP immunostaining signal ([4]; Corpus Callosum) | NKκB(p65) immunostaining signal ([4]; Corpus Callosum) | OX-6 immunostaining signal ([4]; Corpus Callosum) | TNFα immunostaining signal ([4]; Corpus Callosum) | Tau-2 immunostaining signal ([4]; Corpus Callosum) | APP immunostaining signal ([4]; Cortex) | COX-2 immunostaining signal ([4]; Cortex) | GFAP immunostaining signal ([4]; Cortex) | NKκB(p65) immunostaining signal ([4]; Cortex) | OX-6 immunostaining signal ([4]; Cortex) | TNFα immunostaining signal ([4]; Cortex) | Tau-2 immunostaining signal ([4]; Cortex) | APP immunostaining signal ([4]; Hippocampus) | COX-2 immunostaining signal ([4]; Hippocampus) | GFAP immunostaining signal ([4]; Hippocampus) | NKκB(p65) immunostaining signal ([4]; Hippocampus) | OX-6 immunostaining signal ([4]; Hippocampus) | Tau-2 immunostaining signal ([4]; Hippocampus) | APP immunostaining signal ([4]; Hypothalamus) | NKκB(p65) immunostaining signal ([4]; Hypothalamus) | TNFα immunostaining signal ([4]; Hypothalamus) | GFAP immunostaining signal ([4]; Striatum (right)) | OX-6 immunostaining signal ([4]; Thalamus (right)) | TNFα immunostaining signal ([4]; Thalamus (right))
162.9±8.7: Average intensity measurements for GFAP ([3]; Hippocampus)
166.5 ± 4.2: GFAP Intensity ([3]; Right Hippocampus)
n.s.: APP immunostaining signal ([4]; Striatum (right)) | COX-2 immunostaining signal ([4]; Striatum (right)) | Cas-3 immunostaining signal ([4]; Striatum (right)) | NKκB(p65) immunostaining signal ([4]; Striatum (right)) | OX-6 immunostaining signal ([4]; Striatum (right)) | TNFα immunostaining signal ([4]; Striatum (right))
36.8 ± 7.8^y: APP Accumulation ([3]; Left Cortex)
119.3 ± 9.1: OX6 Intensity ([3]; Right Hippocampus)
37.8 ± 5.4^y: APP Accumulation ([3]; Right Cortex)
increased latency: latency (time to enter the escape hole) [1]
167.5 ± 5.2: GFAP Intensity ([3]; Left Hippocampus)
116.2 ± 6.7: OX6 Intensity ([3]; Left Hippocampus)
